From the NIST ThermoML archive (doi:10.1021/je0601208)

Columns and labels:
[1] = refractive index (Na D-line) (dimensionless); xn = mol fraction of the nth substance listed; details: 100.5 kPa, Liquid, Standard Abbe refractometry
[2] = xn = mol fraction of the nth substance listed

CC(=O)OCCC(C)C [3-methylbutyl ethanoate] + CCO
Details | refractive index, [1] | surface tension liquid-gas, [2] [mN/m]
288.15 K, x1 = 0.05 | 1.36803 | 23.2
288.15 K, x1 = 0.1 | 1.37207 | 23.4
288.15 K, x1 = 0.15 | 1.37559 | 23.6
288.15 K, x1 = 0.2 | 1.3787 | 23.7
288.15 K, x1 = 0.25 | 1.38146 | 23.8
288.15 K, x1 = 0.3 | 1.38393 | 24
288.15 K, x1 = 0.35 | 1.38614 | 24.1
288.15 K, x1 = 0.4 | 1.38814 | 24.2
288.15 K, x1 = 0.45 | 1.38996 | 24.3
288.15 K, x1 = 0.5 | 1.39164 | 24.4
288.15 K, x1 = 0.55 | 1.39319 | 24.5
288.15 K, x1 = 0.6 | 1.39462 | 24.6
288.15 K, x1 = 0.65 | 1.39595 | 24.7
288.15 K, x1 = 0.7 | 1.39717 | 24.8
288.15 K, x1 = 0.75 | 1.39829 | 24.9
288.15 K, x1 = 0.8 | 1.39933 | 25
288.15 K, x1 = 0.85 | 1.40031 | 25.1
288.15 K, x1 = 0.9 | 1.40122 | 25.2
288.15 K, x1 = 0.95 | 1.40207 | 25.3
288.15 K, x1 = 1 | 1.40288 | 25.4
298.15 K, x1 = 0.05 | 1.36393 | 22.4
298.15 K, x1 = 0.1 | 1.36787 | 22.5
298.15 K, x1 = 0.15 | 1.37133 | 22.7
298.15 K, x1 = 0.2 | 1.3744 | 22.8
298.15 K, x1 = 0.25 | 1.37712 | 22.9
298.15 K, x1 = 0.3 | 1.37954 | –
298.15 K, x1 = 0.35 | 1.38172 | 23
298.15 K, x1 = 0.4 | 1.3837 | 23.1
298.15 K, x1 = 0.45 | 1.3855 | 23.2
298.15 K, x1 = 0.5 | 1.38717 | 23.3
298.15 K, x1 = 0.55 | 1.38871 | 23.4
298.15 K, x1 = 0.6 | 1.39013 | 23.5
298.15 K, x1 = 0.65 | 1.39144 | 23.6
298.15 K, x1 = 0.7 | 1.39265 | 23.7
298.15 K, x1 = 0.75 | 1.39378 | 23.8
298.15 K, x1 = 0.8 | 1.39482 | 23.9
298.15 K, x1 = 0.85 | 1.3958 | 24
298.15 K, x1 = 0.9 | 1.3967 | 24.1
298.15 K, x1 = 0.95 | 1.39755 | 24.2
298.15 K, x1 = 1 | 1.39836 | 24.3
308.15 K, x1 = 0.05 | 1.35964 | 21.6
308.15 K, x1 = 0.1 | 1.36349 | 21.6
308.15 K, x1 = 0.15 | 1.3669 | 21.7
308.15 K, x1 = 0.2 | 1.36992 | 21.8
308.15 K, x1 = 0.25 | 1.3726 | 21.9
308.15 K, x1 = 0.3 | 1.37499 | 22
308.15 K, x1 = 0.35 | 1.37714 | 22.1
308.15 K, x1 = 0.4 | 1.37909 | 22.2
308.15 K, x1 = 0.45 | 1.38087 | 22.3
308.15 K, x1 = 0.5 | 1.38251 | 22.4
308.15 K, x1 = 0.55 | 1.38404 | 22.5
308.15 K, x1 = 0.6 | 1.38545 | 22.6
308.15 K, x1 = 0.65 | 1.38675 | 22.7
308.15 K, x1 = 0.7 | 1.38795 | 22.8
308.15 K, x1 = 0.75 | 1.38907 | 22.9
308.15 K, x1 = 0.8 | 1.39011 | 23
308.15 K, x1 = 0.85 | 1.39109 | 23.1
308.15 K, x1 = 0.9 | 1.39199 | 23.2
308.15 K, x1 = 0.95 | 1.39284 | 23.3
308.15 K, x1 = 1 | 1.39365 | 23.4
318.15 K, x1 = 0.05 | 1.35556 | 20.6
318.15 K, x1 = 0.1 | 1.3593 | 20.6
318.15 K, x1 = 0.15 | 1.36263 | 20.7
318.15 K, x1 = 0.2 | 1.36558 | 20.8
318.15 K, x1 = 0.25 | 1.36821 | 20.9
318.15 K, x1 = 0.3 | 1.37056 | 21
318.15 K, x1 = 0.35 | 1.37268 | 21.1
318.15 K, x1 = 0.4 | 1.3746 | 21.2
318.15 K, x1 = 0.45 | 1.37634 | 21.3
318.15 K, x1 = 0.5 | 1.37795 | 21.4
318.15 K, x1 = 0.55 | 1.37944 | 21.5
318.15 K, x1 = 0.6 | 1.38082 | 21.6
318.15 K, x1 = 0.65 | 1.38211 | 21.7
318.15 K, x1 = 0.7 | 1.3833 | 21.8
318.15 K, x1 = 0.75 | 1.3844 | 21.9
318.15 K, x1 = 0.8 | 1.38543 | 22
318.15 K, x1 = 0.85 | 1.3864 | 22.1
318.15 K, x1 = 0.9 | 1.3873 | 22.2
318.15 K, x1 = 0.95 | 1.38814 | 22.3
318.15 K, x1 = 1 | 1.38895 | 22.4
